# Results taken from ChEMBL document CHEMBL2311391, “Novel inhibitors of protein arginine deiminase with potential activity in multiple sclerosis animal model” (J Med Chem, 2013).
# What was measured:
# [1] = organism: Mus musculus; test: Toxicity in mouse at 10 mg for 5 days; assay type: organism-based; conditions: in vivo, 120 h
# [2] = organism: Mus musculus; test: Toxicity in mouse at 20 mg as single dose; assay type: organism-based; conditions: in vivo
# [3] = organism: Mus musculus; test: Antiinflammatory activity against MOG peptide-induced experimental autoimmune encephalomyelitis mouse model assessed as CD3 marker measured on day 24 after 2 weeks of treatment (reference value: 4.8 +/- 0.19 /mm'2); assay type: functional
compound,measurement,setting,value
CC1(C)NC(=O)N(CN2CCNCC2)C1=O,Activity,[1],Non-toxic
same,Activity,[2],Non-toxic
same,Activity,[3],3.8 mm2
